PubChem BioAssay (NCI)
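A five-concentration, 48-hour dose response in 96-well plates underlies each endpoint, interpolated linearly between surrounding concentrations. Abbreviation: GI50, concentration required for 50% inhibition of growth. TGI: concentration producing complete growth inhibition.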

Columns and labels:
Experiment in all cases: growth of human tumour cells (NCI), 48 h
CAKI-1 renal = system: CAKI-1 renal
SNB-19 CNS = system: SNB-19 CNS
OVCAR-3 ovarian = system: OVCAR-3 ovarian
DU-145 prostate = system: DU-145 prostate
NCI/ADR-RES ovarian = system: NCI/ADR-RES ovarian
NCI-H23 lung = system: NCI-H23 lung
SF-295 CNS = system: SF-295 CNS
LOX IMVI melanoma = system: LOX IMVI melanoma
RXF 393 renal = system: RXF 393 renal
TK-10 renal = system: TK-10 renal
ACHN renal = system: ACHN renal
U251 CNS = system: U251 CNS
HOP-62 NSCLC = system: HOP-62 NSCLC
HCT-116 colon = system: HCT-116 colon
K-562 leukemia = system: K-562 leukemia
UACC-62 melanoma = system: UACC-62 melanoma
KM12 colon = system: KM12 colon
OVCAR-5 ovarian = system: OVCAR-5 ovarian
HL-60(TB) leukemia = system: HL-60(TB) leukemia
MCF7 breast = system: MCF7 breast
SK-OV-3 ovarian = system: SK-OV-3 ovarian
T-47D breast = system: T-47D breast
MDA-MB-435 = system: MDA-MB-435
OVCAR-8 ovarian = system: OVCAR-8 ovarian
SK-MEL-5 melanoma = system: SK-MEL-5 melanoma
SF-268 CNS = system: SF-268 CNS
RPMI-8226 leukemia = system: RPMI-8226 leukemia
COLO 205 colon = system: COLO 205 colon
SK-MEL-2 melanoma = system: SK-MEL-2 melanoma
A498 renal = system: A498 renal
SN12C renal = system: SN12C renal
HOP-92 NSCLC = system: HOP-92 NSCLC
UO-31 renal = system: UO-31 renal
SR leukemia = system: SR leukemia
NCI-H460 lung = system: NCI-H460 lung
NCI-H522 lung = system: NCI-H522 lung
HS 578T breast = system: HS 578T breast
UACC-257 melanoma = system: UACC-257 melanoma
SW-620 colon = system: SW-620 colon
MALME-3M melanoma = system: MALME-3M melanoma
M14 melanoma = system: M14 melanoma
CCRF-CEM leukemia = system: CCRF-CEM leukemia
HCT-15 colon = system: HCT-15 colon
PC-3 prostate = system: PC-3 prostate
A549 NSCLC = system: A549 NSCLC
BT-549 breast = system: BT-549 breast
HCC-2998 colon = system: HCC-2998 colon
SF-539 CNS = system: SF-539 CNS
HT29 colon = system: HT29 colon
MDA-MB-231 breast = system: MDA-MB-231 breast
OVCAR-4 ovarian = system: OVCAR-4 ovarian
MOLT-4 leukemia = system: MOLT-4 leukemia
786-0 renal = system: 786-0 renal
IGROV1 ovarian = system: IGROV1 ovarian
EKVX NSCLC = system: EKVX NSCLC
SK-MEL-28 melanoma = system: SK-MEL-28 melanoma

`Cc1ccc(S(=O)(=O)Nc2ccc(-c3cc(-c4cccc(F)c4)c(C#N)c(N)n3)cc2)cc1` was tested, and the GI50 (CAKI-1 renal) was 1.6 µM, the TGI (CAKI-1 renal) was 3.16 µM and the GI50 (SNB-19 CNS) was 3.15 µM. It also gave a TGI (SNB-19 CNS) of 11.6 µM, a GI50 (OVCAR-3 ovarian) of 1.63 µM and a TGI (OVCAR-3 ovarian) of 3.12 µM. The GI50 (DU-145 prostate) was 2.33 µM, the TGI (DU-145 prostate) was 5.45 µM and the GI50 (NCI/ADR-RES ovarian) was 2.92 µM. The TGI (NCI/ADR-RES ovarian) was 10.8 µM, the GI50 (NCI-H23 lung) was 2.48 µM and the TGI (NCI-H23 lung) was 7.96 µM. The GI50 (SF-295 CNS) was 3.33 µM, the TGI (SF-295 CNS) was 14.5 µM and the GI50 (LOX IMVI melanoma) was 1.82 µM. It also gave a TGI (LOX IMVI melanoma) of 3.66 µM, a GI50 (RXF 393 renal) of 1.44 µM and a TGI (RXF 393 renal) of 2.79 µM. For the same compound, the GI50 (TK-10 renal) was 1.66 µM, the TGI (TK-10 renal) was 3.17 µM and the GI50 (ACHN renal) was 1.58 µM. The TGI (ACHN renal) was 2.92 µM, the GI50 (U251 CNS) was 2.75 µM and the TGI (U251 CNS) was 9.62 µM. The GI50 (HOP-62 NSCLC) was 4.25 µM, the TGI (HOP-62 NSCLC) was 17.2 µM and the GI50 (HCT-116 colon) was 1.69 µM. For the same compound, the TGI (HCT-116 colon) was 3.23 µM, the GI50 (K-562 leukemia) was 2.63 µM and the TGI (K-562 leukemia) was greater than 100 µM. For the same compound, the GI50 (UACC-62 melanoma) was 1.52 µM, the TGI (UACC-62 melanoma) was 3.44 µM and the GI50 (KM12 colon) was 3.1 µM. The TGI (KM12 colon) was 10.2 µM, the GI50 (OVCAR-5 ovarian) was 1.73 µM and the TGI (OVCAR-5 ovarian) was 3.46 µM. It also gave a GI50 (HL-60(TB) leukemia) of 1.87 µM, a TGI (HL-60(TB) leukemia) of 6.07 µM and a GI50 (MCF7 breast) of 2.32 µM. The TGI (MCF7 breast) was 10 µM, the GI50 (SK-OV-3 ovarian) was 8.92 µM and the TGI (SK-OV-3 ovarian) was 23.3 µM. For the same compound, the GI50 (T-47D breast) was 1.48 µM, the TGI (T-47D breast) was 3.66 µM and the GI50 (MDA-MB-435) was 2.02 µM. The TGI (MDA-MB-435) was 4.46 µM, the GI50 (OVCAR-8 ovarian) was 2.43 µM and the TGI (OVCAR-8 ovarian) was 7.83 µM. The GI50 (SK-MEL-5 melanoma) was 1.77 µM, the TGI (SK-MEL-5 melanoma) was 3.23 µM and the GI50 (SF-268 CNS) was 2.97 µM. It also gave a TGI (SF-268 CNS) of 12.8 µM, a GI50 (RPMI-8226 leukemia) of 2.21 µM and a TGI (RPMI-8226 leukemia) of 8.92 µM. For the same compound, the GI50 (COLO 205 colon) was 2.18 µM, the TGI (COLO 205 colon) was 4.48 µM and the GI50 (SK-MEL-2 melanoma) was 1.96 µM. For the same compound, the TGI (SK-MEL-2 melanoma) was 4.22 µM, the GI50 (A498 renal) was 3.7 µM and the TGI (A498 renal) was 16.2 µM. The GI50 (SN12C renal) was 2.2 µM, the TGI (SN12C renal) was 7.11 µM and the GI50 (HOP-92 NSCLC) was 1.06 µM. For the same compound, the TGI (HOP-92 NSCLC) was 2.37 µM, the GI50 (UO-31 renal) was 1.32 µM and the TGI (UO-31 renal) was 2.59 µM. It also gave a GI50 (SR leukemia) of 2.7 µM, a TGI (SR leukemia) of 10.5 µM and a GI50 (NCI-H460 lung) of 3.53 µM. The TGI (NCI-H460 lung) was 12.6 µM, the GI50 (NCI-H522 lung) was 1.69 µM and the TGI (NCI-H522 lung) was 4.91 µM. For the same compound, the GI50 (HS 578T breast) was 2.28 µM, the TGI (HS 578T breast) was 7.48 µM and the GI50 (UACC-257 melanoma) was 1.93 µM. For the same compound, the TGI (UACC-257 melanoma) was 4.24 µM, the GI50 (SW-620 colon) was 2 µM and the TGI (SW-620 colon) was 4.4 µM. The GI50 (MALME-3M melanoma) was 1.61 µM, the TGI (MALME-3M melanoma) was 3.25 µM and the GI50 (M14 melanoma) was 2.01 µM. It also gave a TGI (M14 melanoma) of 4.38 µM, a GI50 (CCRF-CEM leukemia) of 2.26 µM and a TGI (CCRF-CEM leukemia) of 30.8 µM. The GI50 (HCT-15 colon) was 1.88 µM, the TGI (HCT-15 colon) was 4.86 µM and the GI50 (PC-3 prostate) was 2.19 µM. The TGI (PC-3 prostate) was 7.56 µM, the GI50 (A549 NSCLC) was 3.11 µM and the TGI (A549 NSCLC) was 15.7 µM. The GI50 (BT-549 breast) was 1.35 µM, the TGI (BT-549 breast) was 2.78 µM and the GI50 (HCC-2998 colon) was 1.72 µM. The TGI (HCC-2998 colon) was 3.28 µM, the GI50 (SF-539 CNS) was 1.56 µM and the TGI (SF-539 CNS) was 3.02 µM. For the same compound, the GI50 (HT29 colon) was 3.4 µM, the TGI (HT29 colon) was 12.3 µM and the GI50 (MDA-MB-231 breast) was 1.95 µM. It also gave a TGI (MDA-MB-231 breast) of 4.6 µM, a GI50 (OVCAR-4 ovarian) of 1.77 µM and a TGI (OVCAR-4 ovarian) of 3.67 µM. It also gave a GI50 (MOLT-4 leukemia) of 3.2 µM, a TGI (MOLT-4 leukemia) of 30.2 µM and a GI50 (786-0 renal) of 1.71 µM. It also gave a TGI (786-0 renal) of 3.12 µM, a GI50 (IGROV1 ovarian) of 1.35 µM and a TGI (IGROV1 ovarian) of 2.75 µM. It also gave a GI50 (EKVX NSCLC) of 2.17 µM, a TGI (EKVX NSCLC) of 6.32 µM and a GI50 (SK-MEL-28 melanoma) of 1.96 µM. The TGI (SK-MEL-28 melanoma) was 4.08 µM.
